The values that follow come from US4469631A, “Fusion peptides comprising an expressible bacterial gene and β-endorphin” (The Regents of the University of California, priority 1982, dated 1984).

The test system of assay [1] is prostaglandin E1-stimulated adenylate cyclase of NG 108-15 cells. The following applies: literature; cited from earlier work.
Assay [2] deals with opiate receptors. The following applies: Li, C. H., et al, Proc. Natl. Acad. Sci. 76, 3276 (1979); cited from earlier work.
Assay [3] has as its system prostaglandin E1-stimulated adenylate cyclase of NG 108-15 cells. In words: Inhibition of prostaglandin E1-stimulated adenylate cyclase activity in neuroblastoma-glioma hybrid cell line NG 108-15. Type of assay: biochemical. The following applies: result in words; for reversal of the adenylate cyclase inhibition by naloxone: naloxone added.
In assay [4] the test system is rat brain opiate receptors. In words: Receptor binding activity: competitive inhibition of binding of labeled opiate agonist or antagonist to rat brain membranes. The conditions noted are these: result in words. The method, then:
The opiate receptor preparation was prepared from rat membrane preparation isolated from male Sprague-Dawley rats (200-220 g) killed by decapitation. The brains, except for the cerebellum, were homogenized in 40 volumes of ice-cold Tris-HCl buffer pH 7.7. The homogenates were centrifuged at 600 g for 5 minutes, then the supernatant fluid was centrifuged at 49,000 g at 4° C. for 15 minutes. The pellets were re-suspended in 5 ml of 0.05 M Tris-HCl buffer pH 7.7 and incubated at 37° C. for 30 minutes, then centrifuged at 49,000 g at 4° C. for another 15 minutes. The final pellet from each rat brain was then re-suspended in 40 ml of 0.05 M Tris-HCl buffer pH 7.7 containing 100 μg/ml of Bacitracin and used for the binding assays.
The binding experiments were performed either at 25° C. for 20 minutes or at 0° C. for 3 hours. The reaction mixtures contained 1 ml of the rat membrane preparation as described, 1.5 nM of ^3 H-methionine enkephalinamide (38 Ci/m Mole) or ^3 H-naloxone (25 Ci/m Mole) together with bacterial extracts from pβgal or pβgal-end transformed cultures (4.5 mg protein for enkephalinamide rections and 0.65 μg protein for naloxone reactions). At the end of the binding reaction the mixture was filtered under vacuum over glass fiber filters (Whatman, Clifton, N.J., GH-B filters). […]

Assay [5] concerns antiserum directed against mouse β-endorphin. The assay can be described thus: Immunological activity: competition with 125I-labeled human β-endorphin for antiserum (radioimmunoassay). Type of assay: binding. The conditions noted are these: dilution series of extract, 4° C., 24 hours; FIG. 5. As to the method:
Immunological activity of β-endorphin produced according to the present invention was measured by its ability to compete with radioactively labeled human β-endorphin for antiserum directed against mouse β-endorphin. The human hormone differs from that of mouse only at position 27, where a tyrosine is present instead of histidine residue. […] Antiserum to mouse β-endorphin was prepared as described by Allen, et al., Proc. Nat'l. Acad. Sci. 75, 4972 (1978). […]
In the assay, a dilution series of β-endorphin sample prepared according to the present invention was incubated with a fixed amount of labeled human endorphin and a fixed amount of antiserum. […] The percentage of radioactivity remaining in the pellet was compared to the total radioactivity determined prior to incubation and plotted as a function of the concentration of the cell extracts.

Turning to `CN1CC[C@]23c4c5ccc(O)c4O[C@H]2[C@@H](O)C=C[C@H]3[C@H]1C5` [morphine], the “inhibition of prostaglandin E1 stimulation of adenylate cyclase” value in assay [1] is recorded as “This stimulation is inhibited by morphine”.

As to `C=CCN1CC[C@]23c4c5ccc(O)c4O[C@H]2C(=O)CC[C@@]3(O)[C@H]1C5` [naloxone], the “prevention of the inhibitory effect of morphine on stimulated adenylate cyclase” value in assay [1] is “the inhibitory affect of morphine can be prevented by naloxone”.

For “Gly^31 -endorphin (YGGFMTSEKSQTPLVTLFKNAIIKNAYKKGG; Beta-endorphin; UniProt P01189 237-267, looked up, variant E31G) ["super-agonist" endorphin analog described by Li, C; H]”, in assay [2], the “opiate agonist potency relative to endorphin” value is given as “more potent opiate agonists than endorphin itself”.

As for Gly^31 -endorphinamide, the “opiate agonist potency relative to endorphin” value in assay [2] is on record as “more potent opiate agonists than endorphin itself”.

In the case of Gly^31 -endorphinylglycine, in assay [2], the “opiate agonist potency relative to endorphin” value is given as “more potent opiate agonists than endorphin itself”.

For the compound “β-endorphin (YGGFMTSEKSQTPLVTLFKNAIIKNAHKKGQ; Beta-endorphin; UniProt P01193 205-235, looked up) [mouse β-endorphin, 31 amino acid polypeptide, released from the bacterial β-galactosidase fusion protein according to the invention]”, the “inhibition of prostaglandin E1 stimulation of adenylate cyclase activity” value in assay [3] was “inhibited the adenylate cyclase activity”; in assay [3] (listed as Endorphin), “significant inhibition”. Further, the “reversal of the adenylate cyclase inhibition by naloxone” value in assay [3] was “the inhibition was reversed by the addition of naloxone”; in assay [3] (listed as Endorphin), “inhibition was reversed by addition of the opiate antagonist naloxone”. Also, the “displacement of opiate agonist (enkephalinamide) and opiate antagonist (naloxone) from rat brain opiate receptors” value in assay [4] is “effective inhibitor”; in assay [4] (listed as Endorphin) it was “displaced both the opiate agonist and the opiate antagonist”. Also, in assay [5], the “competition with labeled human β-endorphin for antiserum against mouse β-endorphin” value is recorded as “immunologically reactive with antiserum raised against mouse endorphin”.
